US20220226480A1, “LIPID CONJUGATE PREPARED FROM SCAFFOLD MOIETY” (Integrated Nanotherapeutics Inc., priority 2019, published 2022)

How the values were obtained:
[1] = Particle size and polydispersity of LNP containing pro-drug (dynamic light scattering); assay type: physicochemical; parameters: Size of LNP: unit not given here; conditions: for Particle Diameter (nm) / Polydispersity index (PDI): LNP containing 10 mol % conjugate, primary PC-lipid DMPC
Description: (§1) LNPs were prepared by dissolving 1,2-Distearoyl-sn-glycero-3-phosphocholine (DSPC) or 1,2-dimyristoyl-sn-glycero-3-phosphocholine (DMPC), cholesterol and 1,2-Distearoyl-sn-glycero-3-phosphoethanolamine-Poly(ethylene glycol) (PEG-DSPE) in ethanol. DSPC, DMPC and PEG-DSPE were purchased from Avanti Polar Lipids (Alabaster, Ala.), and cholesterol was obtained from Sigma (St Louis, Mo.).
(§2) Drug-lipid-conjugates INT-D034, INT-D035, INT-D045, INT-D046, INT-D047, INT-D048, INT-D049, INT-D050, INT-D051, INT-D053, INT-D060, INT-D061, INT-D062, INT-D063, INT-D083, INT-D085, INT-D086, INT-D088 and INT-D089 (see FIG. 3 and Example 7 for structures) were dissolved in isopropanol or THF. LNP were prepared by rapidly mixing DSPC or DMPC, cholesterol, drug-lipid conjugate, and PEG-DSPE (in molar ratio of 49/40/10/1) with phosphate-buffered saline (PBS) using a cross-junction mixer. Formulations were dialyzed against PBS to remove residual ethanol. In formulation$ with more than 10 mol % drug-lipid conjugates, the amount of phospholipid or cholesterol was reduced accordingly.
(§3) The physiochemical properties of the LNPs prepared as described above were subsequently characterized. Particle size was determined by dynamic light scattering using a Malvern Zetasizer Nano ZS (Malvern, UK) following buffer exchange into phosphate-buffered saline. Number-weighted size and distribution date was used. Lipid concentrations were determined by measuring total cholesterol using the Cholesterol E enzymatic assay kit from Wako Chemicals USA (Richmond, Va.). The morphology of LNP formulations containing LD-DEX was analyzed by cryogenic-transmission electron microscopy (cryoTEM).

[2] = Encapsulation efficiency / incorporation of pro-drug in LNP; assay type: physicochemical; conditions: for Encapsulation Efficiency (%): LNP containing 10 mol % conjugate; for % Entrapment: LNP formulations containing pro-drugs (10 mol %, FIG. 6A)
Description: as §1, §2, §3

[3] = LNP formulations containing pro-drugs (10 mol %, FIG. 6A)
[4] = LNP, pro-drug concentration 50 %
[5] = LNP, pro-drug concentration 60 %
[6] = LNP, pro-drug concentration 80 %
[7] = LNP, pro-drug concentration 98 %
[8] = LNP, pro-drug concentration 99 %
[9] = LNP, pro-drug concentration 10 %
[10] = LNP, pro-drug concentration 20 %

SMILES | Particle Diameter (nm) [1] [nm] | Polydispersity index (PDI) [1] | PdI [1, 3] | Size of LNP [1, 3] | Encapsulation Efficiency (%) ([2]; primary PC-lipid DMPC) | % Entrapment [2] [%] | PdI [1, 5] | Size (nm) [1, 5] [nm] | PdI [1, 6] | Size (nm) [1, 6] [nm] | PdI [1, 7] | Size (nm) [1, 7] [nm] | PdI [1, 8] | Size (nm) [1, 8] [nm] | PdI [1, 9] | Size (nm) [1, 9] [nm] | PdI [1, 10] | Size (nm) [1, 10] [nm] | other results
CCCCCCCCCCCC(=O)O[C@@H](C/C=C\CCCCCCCCOC(=O)CCC(=O)OCC(=O)[C@@]1(O)[C@H](C)C[C@H]2[C@@H]3CCC4=CC(=O)C=C[C@]4(C)[C@@]3(F)[C@@H](O)C[C@@]21C)CCCCCC [INT-D046, (R,Z)-12-(dodecanoyloxy)octadec-9-en-1-yl (2-((8S,9R,10S,11S,13S,14S,16R,17R)-9-fluoro-11,17-dihydroxy-10,13,16-trimethyl-3-oxo-6,7,8,9,10,11,12,13,14,15,16,17-dodecahydro-3H-cyclopenta[a]phenanthren-17-yl)-2-oxoethyl) succinate] | 69 | 0.04 | 0.08 | 64 | 93 | 100 |  |  |  |  |  |  |  |  |  |  |  |  | 
CC/C=C\C/C=C\C/C=C\CCCCCCCC(=O)O[C@@H](C/C=C\CCCCCCCCOC(=O)CCC(=O)OCC(=O)[C@@]1(O)[C@H](C)C[C@H]2[C@@H]3CCC4=CC(=O)C=C[C@]4(C)[C@@]3(F)[C@@H](O)C[C@@]21C)CCCCCC [INT-D049, 2-((8S,9R,10S,11S,13S,14S,16R,17R)-9-fluoro-11,17-dihydroxy-10,13,16-trimethyl-3-oxo-6,7,8,9,10,11,12,13,14,15,16,17-dodecahydro-3H-cyclopenta[a]phenanthren-17-yl)-2-oxoethyl ((R,Z)-12-(linolenoyloxy)octadec-9-en-1-yl) succinate] | 68 | 0.05 | 0.11 | 65 | 94 | 100 | 0.02 | 61 | 0.03 | 92 | 0.05 | 69 | 0.03 | 103 |  |  |  |  | PdI [1, 4]: 0.05; Size (nm) [1, 4]: 44 nm; Encapsulation Efficiency (%) ([2]; primary PC-lipid DSPC): 100%
CCCCCCCCCCCCCCCCCC(=O)O[C@@H](C/C=C\CCCCCCCCOC(=O)CCC(=O)OCC(=O)[C@@]1(O)[C@H](C)C[C@H]2[C@@H]3CCC4=CC(=O)C=C[C@]4(C)[C@@]3(F)[C@@H](O)C[C@@]21C)CCCCCC [INT-D050, 2-((8S,9R,10S,11S,13S,14S,16R,17R)-9-fluoro-11,17-dihydroxy-10,13,16-trimethyl-3-oxo-6,7,8,9,10,11,12,13,14,15,16,17-dodecahydro-3H-cyclopenta[a]phenanthren-17-yl)-2-oxoethyl ((R,Z)-12-(stearoyloxy)octadec-9-en-1-yl) succinate] | 61 | 0.04 | 0.05 | 60 | 97 | 90 |  |  | 0.01 | 101 | 0.02 | 61 | 0.01 | 105 |  |  |  |  | 
CCCCC/C=C\C/C=C\C/C=C\C/C=C\CCCC(=O)O[C@@H](C/C=C\CCCCCCCCOC(=O)CCC(=O)OCC(=O)[C@@]1(O)[C@H](C)C[C@H]2[C@@H]3CCC4=CC(=O)C=C[C@]4(C)[C@@]3(F)[C@@H](O)C[C@@]21C)CCCCCC [INT-D051, 2-((8S,9R,10S,11S,13S,14S,16R,17R)-9-fluoro-11,17-dihydroxy-10,13,16-trimethyl-3-oxo-6,7,8,9,10,11,12,13,14,15,16,17-dodecahydro-3H-cyclopenta[a]phenanthren-17-yl)-2-oxoethyl ((R,Z)-12-(arachidonoyloxy)octadec-9-en-1-yl) succinate] | 65 | 0.03 | 0.04 | 61 | 84 | 100 |  |  | 0.02 | 87 | 0.04 | 56 | 0.01 | 93 |  |  |  |  | Encapsulation Efficiency (%) ([2]; primary PC-lipid DSPC): 100%
CCCCCC[C@H](C/C=C\CCCCCCCCOC(=O)c1ccccc1OC(C)=O)OC(=O)CCCCC [INT-D060, (R,Z)-12-Hexanoyloxyoctadec-9-en-1-yl 2-acetoxybenzoate] |  |  |  |  |  |  | 0.216 | 71 | 0.042 | 67 |  |  | 0.034 | 98 | 0.06 | 46 | 0.116 | 42 | 
CCCCC/C=C\C/C=C\CCCCCCCC(=O)O[C@@H](C/C=C\CCCCCCCCOC(=O)c1ccccc1OC(C)=O)CCCCCC [INT-D061] |  |  |  |  |  |  | 0.186 | 72 | 0.089 | 82 |  |  | 0.045 | 123 | 0.061 | 44 | 0.065 | 39 | 
CCCCCC[C@H](C/C=C\CCCCCCCCOC(=O)CC/C(C)=C/Cc1c(O)c2c(c(C)c1OC)COC2=O)OC(=O)CCCCC [INT-D062, (12R)-Hexanoyloxyoleyl (E) 6-(4-hydroxy-6-methoxy-7-methyl-3-oxo-1,3-dihydroisobenzofuran-5-yl)-4-methylhex-4-enoate] |  |  |  |  |  |  | 0.212 | 70 | 0.021 | 68 |  |  | 0.019 | 93 | 0.085 | 42 | 0.072 | 39 | 
CCCCC/C=C\C/C=C\CCCCCCCC(=O)O[C@@H](C/C=C\CCCCCCCCOC(=O)CC/C(C)=C/Cc1c(O)c2c(c(C)c1OC)COC2=O)CCCCCC [INT-D063, (12R)-Linoleoyloxyoleyl (E)-6-(4-hydroxy-6-methoxy-7-methyl-3-oxo-1,3-dihydroisobenzofuran-5-yl)-4-methylhex-4-enoate] |  |  |  |  |  |  | 0.149 | 57 | 0.031 | 91 |  |  | 0.028 | 119 | 0.069 | 41 | 0.056 | 41 | 
CCCCCCCCC(OC(=O)CCCCC)C(CCCCCCCC(=O)OCC(=O)[C@@]1(O)[C@H](C)C[C@H]2[C@@H]3CCC4=CC(=O)C=C[C@]4(C)[C@@]3(F)[C@@H](O)C[C@@]21C)OC(=O)CCCCC (stereo partly drawn) [INT-D085, 1-(2-((8S,9R,10S,11S,13,14S,16R,17R)-9-Fluoro-11,17-dihydroxy-10,13,16-trimethyl-3-oxo-6,7,8,9,10,11,12,13,14,15,16,17-dodecahydro-3H-cyclopenta[a]phenanthren-17-yl)-2-oxoethoxy)-1-oxooctadecane-9,10-diyl dihexanoate] |  |  | 0.06 | 42 |  | 100 | 0.059 | 56 | 0.034 | 124 |  |  | 0.006 | 135 | 0.064 | 42 | 0.075 | 39 | 
CCCCC/C=C\C/C=C\CCCCCCCC(=O)O[C@@H](C/C=C\CCCCCCCC(=O)OCC(=O)[C@@]1(O)[C@H](C)C[C@H]2[C@@H]3CCC4=CC(=O)C=C[C@]4(C)[C@@]3(F)[C@@H](O)C[C@@]21C)CCCCCC [INT-D089, 2-((8S,9R,10S,11S,13S,14S,16R,17R)-9-Fluoro-11,17-dihydroxy-10,13,16-trimethyl-3-oxo-6,7,8,9,10,11,12,13,14,15,16,17-dodecahydro-3H-cyclopenta[a]phenanthren-17-yl)-2-oxoethyl (R,Z)-12-linoleoyloxyoleate] |  |  | 0.07 | 41 |  | 100 |  |  |  |  |  |  |  |  |  |  |  |  | 
